Data: patent publication US20050032145A1, “Methods for measuring activity of glutamine:fructose 6-phosphate amidotransferase and activity of inhibitors thereof” (priority 2002, published 2005)

Assays:
Type in all cases: biochemical
GFAT-alpha = target: T1, GFAT-alpha (Homo sapiens, UniProt Q06210); experiment: GFAT inhibition, microtiter plate glucosamine 6-phosphate assay (GFAT-alpha); settings: enzyme expressed in SF9 insect cells; 60 minutes at 37° C.; OD 585 nm; read-out: IC50 (concentration inhibiting 50% of maximum stimulation), GFAT-alpha
T1 construct: made in house; host or cells: SF9 insect cells (sonicated, centrifuged cell extract)
Protocol: (§1) For measurement of […], the GFAT enzyme reaction and analysis of the product are preferably carried out directly in a microtiter plate. The preferred reaction volume of 100 μl consists of the substrates glutamine (10 mM) and fructose 6-phosphate (10 mM), phosphate buffered saline (PBS) pH 7.4, ethylenediaminetetraacetic acid (EDTA) (5 mM), dithiothreitol (DTT) (1 mM), and the GFAT enzyme preparation or tissue extract (0.25-50 μl). The incubation mixture is added to the plate, the plate sealed, and placed floating on a 37° C. water bath for 1 hour. Additional incubation mixture is kept on ice to add to standard and control samples. After incubation, non-incubated control and glucosamine 6-phosphate standards of 2.5 to 30 nmoles along with the cold incubator mixture are added to the appropriate wells in the plate. The glucosamine 6-phosphate produced in the incubation mixtures is acetylated by first adding acetic anhydride 1.5% in acetone (10 μl), followed by potassium tetraborate 200 mM (50 μl). The plate is sealed, shaken for 2 minutes on a microshaker, and placed on an 80° C. water bath for 25 minutes. The plate is cooled by placing it on ice for 5 minutes and then Ehrlich's reagent is added (130 μl) (2 g Ehrlich's reagent+0.3 ml water+2.2 ml concentrated hydrochloric acid+17.4 ml acetic acid which is diluted 1:2 in acetic acid before use). The plate is then placed on a 37° C. water bath for 20 minutes and the OD determined at 500-610 nm, preferably 585 nm.
The reaction mixture is made including enough for standard curve samples and kept on ice. The reaction is started by adding the incubation reagents to the microtiter plate, sealing the plate, and placing the plate in a water bath at 37° C. for 1 hr. Standard curve samples are added to the plate, 2.5 to 30 nmoles/well/10 μl, and the cold mix added to control and standard curve samples. Glucosamine 6-phosphate is acetylated with acetic anhydride 1.5%/acetone 10 μl+potassium tetraborate 200 mM 50 μl, by sealing the plate, shaking for 2 minutes and placing on an 80° C. water bath for 25 minutes, then cooling on ice for 5 minutes. Diluted Ehrlich's reagent 130 μl is added and the plate placed on a 37° C. water bath for 20 minutes. The OD is determined at 585 nm.
Stimulation of GFAT activity. […] For most testing, a 60-minute incubation at 37° C. is carried out in 96 well microtiter plates. To give the best heat transfer the plates are sealed with a Costar plate sealer and floated on a 37° C. water bath. Air bubbles are removed from the bottom of the plate to ensure proper heat transfer to all wells. The 100 μl reaction volume consists of glutamine 10 mM, fructose 6-phosphate 10 mM, PBS 1×, EDTA 5 mM DTT 1 mM, and the enzyme preparation. […]

GFAT-beta [1] = target: T2, GFAT-beta (Homo sapiens, UniProt O94808); experiment: Substrate Km determination, Lineweaver-Burk plot (GFAT-beta); settings: extracts from transfected SF9 insect cells, other substrate at saturating levels
T2 construct: made in house; host or cells: SF9 insect cells (sonicated, centrifuged cell extract)
Protocol: FIG. 3 illustrates the effect of varying concentrations of the substrates glutamine and fructose 6-phosphate on the enzyme activity of GFAT-alpha and GFAT-beta. FIG. 3A is a graph illustrating incubation with 10 μl glutamine 200 mM+10 μl fructose 6-phosphate 3.125, 6.25, 12.5, 25, 50, 100, and 200 mM. FIG. 3B is a graph illustrating incubation with 10 μl fructose 6-phosphate 200 mM+10 μl glutamine 3.125, 6.25, 12.5, 25, 50, 100, and 200 mM. 10 μl of GFAT-alpha and 5 μl of GFAT-beta extracts from transfected SF9 insect cells are incubated with 1) 10 μl glutamine 200 mM+10 μl fructose 6-phosphate 3.125, 6.25, 12.5, 25, 50, 100, and 200 mM, and 2) 10 μl fructose 6-phosphate 200 mM+10 μl glutamine 3.125, 6.25, 12.5, 25, 50, 100, and 200 mM in an incubation media containing 10 μl PBS 10×, 10 μl EDTA 50 mM, 10 μl, DTT 10 mM and water to 100 μl. The plate is sealed with a Costar plate sealer and incubated for 60 minutes at 37° C. by floating on a water bath. Additional incubation mixture is kept on ice to add to standard and control samples. […] After a 20-minute incubation at 37° C., the OD is determined for each well at 585 nm. […]
FIG. 3C is a table illustrating the Km values of the substrates for the GFAT-alpha and GFAT-beta enzymes calculated from the data generated in FIGS. 3A and 3B. […]

GFAT-beta [2] = target: T2, GFAT-beta; experiment: GFAT inhibition, microtiter plate glucosamine 6-phosphate assay (GFAT-beta)
Protocol: as §1, with “The plate is cooled by placing it on ice for 5 minutes and then Ehrlich's reagent is added (130 μl) (2 g Ehrlich's reagent+0.3 ml water+2.2 ml concentrated hydrochloric acid+17.4 ml acetic acid which is diluted 1:2 in acetic acid before use).” left out
The reaction mixture is made including enough for standard curve samples and kept on ice. […] The OD is determined at 585 nm. […]

T2 sequence (O94808 whole entry): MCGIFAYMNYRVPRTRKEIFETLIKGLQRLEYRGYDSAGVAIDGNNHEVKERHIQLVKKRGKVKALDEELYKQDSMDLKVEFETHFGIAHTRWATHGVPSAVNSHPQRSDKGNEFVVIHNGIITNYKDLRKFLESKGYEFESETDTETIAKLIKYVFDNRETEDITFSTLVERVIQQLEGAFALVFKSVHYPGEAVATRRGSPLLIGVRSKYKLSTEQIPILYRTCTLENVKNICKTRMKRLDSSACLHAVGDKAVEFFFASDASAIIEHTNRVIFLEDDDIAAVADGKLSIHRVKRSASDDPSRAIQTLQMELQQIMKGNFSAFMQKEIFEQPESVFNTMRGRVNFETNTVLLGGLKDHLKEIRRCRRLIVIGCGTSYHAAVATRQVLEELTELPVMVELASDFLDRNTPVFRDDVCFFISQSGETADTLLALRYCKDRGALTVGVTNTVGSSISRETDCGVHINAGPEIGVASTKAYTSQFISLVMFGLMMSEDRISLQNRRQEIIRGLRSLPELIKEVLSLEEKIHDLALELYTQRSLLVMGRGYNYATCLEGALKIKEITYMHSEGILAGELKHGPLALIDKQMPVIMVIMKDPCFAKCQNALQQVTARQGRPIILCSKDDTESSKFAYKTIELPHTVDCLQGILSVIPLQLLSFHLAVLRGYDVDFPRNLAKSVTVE
T1 sequence (Q06210 1-681 isoform Q06210-2 I57T): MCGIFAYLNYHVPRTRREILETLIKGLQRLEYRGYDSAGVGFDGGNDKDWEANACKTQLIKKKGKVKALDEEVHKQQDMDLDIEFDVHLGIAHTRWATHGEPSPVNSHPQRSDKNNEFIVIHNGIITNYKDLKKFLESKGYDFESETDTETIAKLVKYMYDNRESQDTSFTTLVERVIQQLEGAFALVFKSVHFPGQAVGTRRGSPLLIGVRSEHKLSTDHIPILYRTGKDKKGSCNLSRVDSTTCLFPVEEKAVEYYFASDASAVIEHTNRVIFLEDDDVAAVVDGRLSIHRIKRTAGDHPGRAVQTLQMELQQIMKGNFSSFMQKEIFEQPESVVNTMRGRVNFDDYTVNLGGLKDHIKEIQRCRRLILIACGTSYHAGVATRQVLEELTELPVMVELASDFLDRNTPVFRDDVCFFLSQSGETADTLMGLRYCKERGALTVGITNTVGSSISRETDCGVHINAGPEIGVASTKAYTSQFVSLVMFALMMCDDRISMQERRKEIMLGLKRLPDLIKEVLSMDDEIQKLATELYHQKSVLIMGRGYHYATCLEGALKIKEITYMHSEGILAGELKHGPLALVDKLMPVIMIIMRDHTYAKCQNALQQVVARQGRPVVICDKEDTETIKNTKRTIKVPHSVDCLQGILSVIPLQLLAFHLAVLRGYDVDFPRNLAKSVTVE

Km (GFAT-beta [1]) [mM]	Molecule	IC50 (GFAT-alpha) [µM]	further results
	[N-]=[N+]=CC(=O)CC[C@H](N)C(=O)O [DON, 6-diazo-5-oxo-L-norleucine]	18	
	COC(=O)/C=C/C(=O)NC[C@H](N)C(=O)O [FMDP, N3-(-4-methoxyfumaroyl)-L-2,3-diaminopropanoic acid]	4	
	N[C@@H](CNC(=O)CBr)C(=O)O [N3-(bromoacetyl)-L-2,3-diaminopropanoic acid]	0.38	
6.8	O=C(CO)[C@@H](O)[C@H](O)[C@H](O)COP(=O)(O)O [fructose 6-phosphate]		
1.99	NC(=O)CC[C@H](N)C(=O)O [glutamine]		
	uridine-diphosphate-N-acetylglucosamine [UDP-N-acetylglucosamine]	8	IC50 (GFAT-beta [2]; enzyme expressed in SF9 insect cells, 60 minutes at 37° C., OD 585 nm, read-out: IC50 (concentration inhibiting 50% of maximum stimulation), GFAT-beta): 100 µM; times as much required to inhibit GFAT-beta compared with GFAT-alpha (GFAT-beta [2]; ratio of IC50 GFAT-beta to GFAT-alpha): more than 12 times
